Assay results: BindingDB's records for patent US9624213 (Plexxikon, 2017)

Target: Serine/threonine-protein kinase B-raf [V600E] (Homo sapiens, UniProt P15056, V600E)
Assay: Biochemical activity
Experimental: Assays for biochemical and cell based activity are known in the art, for example, as described in PCT publication WO 2007/002433, the disclosure of which is hereby incorporated by reference as it relates to such assays. For example, the biochemical activity IC50 values are determined with respect to inhibition of B-Raf V600E kinase activity or p-Erk kinase activity, where inhibition of phosphorylation of a peptide substrate is measured as a function of compound concentration. Compounds to be tested are diluted in dimethyl sulfoxide to a concentration of 0.1 mM. These are serially diluted 15 uL into 30 uL of dimethyl sulfoxide seven times in 96 well plates for a total of 8 dilution points, and for each dilution point 1 uL is added to a well of an assay plate. Plates are prepared such that each well in a 384 well plate contains 1 uL of compound in 10 uL volume with 0.1 ng Raf enzyme (i.e. any of B-Raf, c-Raf-1 or B-Raf V600E, Upstate Biotechnology or prepared by methods known to one of skill in the art), 50 mM HEPES, pH 7.0, 50 mM NaCl, 2 mM MgCl2, 1 mM MnCl2, 0.01% Tween-20, 1 mM DTT, and 100 nM biotin-MEK1 as substrate. The reaction is started with addition of 10 uL of 200 uM ATP (i.e. final 100 uM ATP). After incubation of the kinase reaction for 45 minutes at room temperature, 5 uL/well of Stop Solution is added (25 mM Hepes pH 7.5, 100 mM EDTA, 0.01% BSA with donor beads (Streptavidin coated beads, Perkin Elmer), acceptor beads (Protein A coated, Perkin Elmer), and anti phosphor MEK1/2 antibody (CellSignal), each at final concentration 10 ug/mL).

Sequence of Serine/threonine-protein kinase B-raf [V600E] (P15056 2-766 V600E limits assumed): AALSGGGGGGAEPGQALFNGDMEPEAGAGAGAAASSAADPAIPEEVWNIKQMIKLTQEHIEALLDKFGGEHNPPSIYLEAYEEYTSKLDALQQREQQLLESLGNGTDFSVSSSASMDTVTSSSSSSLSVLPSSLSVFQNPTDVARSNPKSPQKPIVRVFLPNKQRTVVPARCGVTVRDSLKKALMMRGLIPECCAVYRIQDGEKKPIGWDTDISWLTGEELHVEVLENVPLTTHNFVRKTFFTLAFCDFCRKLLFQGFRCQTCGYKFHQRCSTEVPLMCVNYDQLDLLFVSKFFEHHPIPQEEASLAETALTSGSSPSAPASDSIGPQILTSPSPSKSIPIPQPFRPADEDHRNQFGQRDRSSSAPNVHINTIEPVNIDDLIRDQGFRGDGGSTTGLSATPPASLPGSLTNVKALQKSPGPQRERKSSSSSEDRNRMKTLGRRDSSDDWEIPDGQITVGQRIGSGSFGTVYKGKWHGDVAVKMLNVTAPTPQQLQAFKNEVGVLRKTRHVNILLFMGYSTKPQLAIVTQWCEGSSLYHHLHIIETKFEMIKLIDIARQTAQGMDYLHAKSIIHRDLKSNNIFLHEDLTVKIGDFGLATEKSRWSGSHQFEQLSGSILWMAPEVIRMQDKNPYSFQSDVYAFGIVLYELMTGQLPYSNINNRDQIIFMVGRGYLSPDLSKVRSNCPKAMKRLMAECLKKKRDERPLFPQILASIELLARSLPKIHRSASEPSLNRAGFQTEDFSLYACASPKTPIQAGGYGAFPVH

With `CN(C)S(=O)(=O)Nc1cccc(C(=O)c2c[nH]c3ncc(-c4ccc(C#N)cc4)cc23)c1F` the IC50 was < 100 nM.

In the case of `COc1ncc(-c2cnc3[nH]cc(C(=O)c4cccc(NS(=O)(=O)N(C)C5CC5)c4F)c3c2)cn1`, the IC50 is reported as < 100 nM.

`CCN(C)S(=O)(=O)Nc1cccc(C(=O)c2c[nH]c3ncc(-c4cnc(OC)nc4)cc23)c1F` was tested, and the IC50 was < 100 nM.

`CN(C)c1ccc(-c2cnc3[nH]cc(C(=O)c4cccc(NS(=O)(=O)N(C)C)c4F)c3c2)cn1` was tested, and the IC50 was < 100 nM.

In the case of `CCN(C)S(=O)(=O)Nc1cccc(C(=O)c2c[nH]c3ncc(-c4cccnc4)cc23)c1F`, the IC50 is reported as < 100 nM.

In the case of `CCN(C)S(=O)(=O)Nc1cccc(C(=O)c2c[nH]c3ncc(C#N)cc23)c1F` [US9624213, Compound P-0039], the IC50 is reported as < 100 nM.

`CCN(C)S(=O)(=O)Nc1cccc(C(=O)c2c[nH]c3ncc(-c4ccc(F)cc4)cc23)c1F` was tested, and the IC50 was < 100 nM.

In the case of `Cc1ccc(-c2cnc3[nH]cc(C(=O)c4cccc(NS(=O)(=O)N(C)C)c4F)c3c2)cn1` [US9624213, Compound P-0029], the IC50 is reported as < 100 nM.

`COc1ncc(-c2cnc3[nH]cc(C(=O)c4cccc(NS(=O)(=O)N5CCCC5)c4F)c3c2)c(OC)n1` [US9624213, Compound P-0044] was tested, and the IC50 was < 100 nM.

With `CCN(C)S(=O)(=O)Nc1cccc(C(=O)c2c[nH]c3ncc(-c4ccc(C)nc4)cc23)c1F` the IC50 was < 100 nM.

`CCN(C)S(=O)(=O)Nc1cccc(C(=O)c2c[nH]c3ncc(-c4ccc(C#N)cc4)cc23)c1F` was tested, and the IC50 was < 100 nM.

`CC(C)CN(C)S(=O)(=O)Nc1cccc(C(=O)c2c[nH]c3ncc(I)cc23)c1F` [US9624213, Compound P-0070] was tested, and the IC50 was > 100 nM.

In the case of `O=C(c1c(F)ccc(NS(=O)(=O)N2CCCC2)c1F)c1c[nH]c2ncc(I)cc12`, the IC50 is reported as < 100 nM.

In the case of `CNS(=O)(=O)Nc1cccc(C(=O)c2c[nH]c3ncc(-c4cnc(OC)nc4)cc23)c1F`, the IC50 is reported as > 100 nM.

`CN(C)c1ncc(-c2cnc3[nH]cc(C(=O)c4c(F)ccc(NS(=O)(=O)N5CCCC5)c4F)c3c2)cn1` was tested, and the IC50 was < 100 nM.

With `CCN(C)S(=O)(=O)Nc1cccc(C(=O)c2c[nH]c3ncc(-c4ccc(Cl)cc4)cc23)c1F` the IC50 was < 100 nM.

For `CCN(C)S(=O)(=O)Nc1ccc(F)c(C(=O)c2c[nH]c3ncc(-c4cnc(OC)nc4)cc23)c1F`, the IC50 was < 100 nM.

`CCC(C)S(=O)(=O)Nc1cccc(C(=O)c2c[nH]c3ncc(-c4cnc(C5CC5)nc4)cc23)c1F` (centres undefined) [US9624213, Compound P-0228] was tested, and the IC50 was < 100 nM.

In the case of `CN(C)S(=O)(=O)Nc1cccc(C(=O)c2c[nH]c3ncc(-c4ccc(F)cc4)cc23)c1F`, the IC50 is reported as < 100 nM.
